Assay results: US20040156869A1, “2-substituted quinazolin-4-ylamine analogues” (Neurogen Corporation, priority 2002, published 2004)

The compounds below were run against human capsaicin receptor (VR1) (Homo sapiens, UniProt Q8NER1) (assay: Capsaicin receptor binding assay ([3H]RTX competition, VR1-transfected HEK293 membranes)).
human capsaicin receptor (VR1), sequence (Q8NER1 whole entry): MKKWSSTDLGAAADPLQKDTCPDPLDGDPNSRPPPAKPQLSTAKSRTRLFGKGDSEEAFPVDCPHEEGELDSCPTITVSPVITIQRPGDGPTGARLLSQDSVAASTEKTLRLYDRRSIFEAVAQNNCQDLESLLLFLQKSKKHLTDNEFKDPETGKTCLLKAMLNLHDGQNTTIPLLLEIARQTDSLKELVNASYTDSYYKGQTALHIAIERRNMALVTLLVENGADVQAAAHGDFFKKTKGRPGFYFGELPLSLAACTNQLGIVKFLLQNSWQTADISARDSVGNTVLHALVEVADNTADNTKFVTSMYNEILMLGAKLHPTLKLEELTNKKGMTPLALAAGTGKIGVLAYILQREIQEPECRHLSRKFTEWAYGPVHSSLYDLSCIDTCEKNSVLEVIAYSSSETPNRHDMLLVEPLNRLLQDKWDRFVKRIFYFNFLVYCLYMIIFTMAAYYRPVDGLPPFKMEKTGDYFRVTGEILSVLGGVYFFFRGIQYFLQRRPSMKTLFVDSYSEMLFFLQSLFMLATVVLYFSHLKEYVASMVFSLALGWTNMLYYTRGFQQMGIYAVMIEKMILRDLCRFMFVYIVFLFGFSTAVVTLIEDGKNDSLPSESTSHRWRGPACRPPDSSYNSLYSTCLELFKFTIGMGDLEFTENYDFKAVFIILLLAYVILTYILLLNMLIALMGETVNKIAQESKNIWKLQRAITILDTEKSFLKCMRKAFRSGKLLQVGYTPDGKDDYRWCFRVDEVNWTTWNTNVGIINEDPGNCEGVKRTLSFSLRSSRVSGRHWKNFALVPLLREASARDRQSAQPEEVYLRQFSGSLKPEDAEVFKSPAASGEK

Ki, < 1000 nM:
CCN(CC)CC(C)(C)c1ccc(Nc2nc(COC)nc3nc(-c4ncccc4C)ccc23)cc1 [Compound 227, [4-(2-Diethylamino-1,1-dimethyl-ethyl)-phenyl]-[2-methoxymethyl-7-(3-methyl-pyridin-2-yl)-pyrido[2,3-d]pyrimidin-4-yl]-amine]
COCc1nc(Nc2ccc(C(C)C)cc2)c2ccc(-c3ncccc3Cl)cc2n1 [Compound 69, [7-(3-Chloro-pyridin-2-yl)-2-methoxymethyl-quinazolin-4-yl]-(4-isopropyl-phenyl)-amine]
COCCc1nc(Nc2ccc(C(F)(F)F)cc2)c2ccc(-c3ncccc3Cl)nc2n1 [Compound 85, [7-(3-Chloro-pyridin-2-yl)-2-(2-methoxy-ethyl)-pyrido[2,3-d]pyrimidin-4-yl]-(4-trifluoromethyl-phenyl)-amine]
CCN(CC)C(=O)C(C)(C)c1ccc(Nc2nc(COC)nc3nc(-c4ncccc4C(F)(F)F)ccc23)cc1 [Compound 221, N,N-Diethyl-2-{4-[2-methoxymethyl-7-(3-trifluoromethyl-pyridin-2-yl)-pyrido[2,3-d]pyrimidin-4-ylamino]-phenyl}-isobutyramide]
CC1CCN(CCc2nc(Nc3ccc(C(F)(F)F)cc3)c3ccc(-c4ncccc4C(F)(F)F)cc3n2)CC(C)(C)C1 (centres unmarked) [Compound 406, (4-Trifluoromethyl-phenyl)-{7-(3-trifluoromethyl-pyridin-2-yl)-2-[2-(3,3,5-trimethyl-azepan-1-yl)-ethyl]-quinazolin-4-yl}-amine]
CCCCCCN(C)Cc1nc(Nc2ccc(C(F)(F)F)cc2)c2ccc(-c3ncccc3C(F)(F)F)cc2n1 [Compound 336]
FC(F)(F)c1ccc(Nc2nc(COCc3ccncc3)nc3cc(-c4ncccc4C(F)(F)F)ccc23)cn1 [Compound 46, [2-(Pyridin-4-ylmethoxymethyl)-7-(3-trifluoromethyl-pyridin-2-yl)-quinazolin-4-yl]-(6-trifluoromethyl-pyridin-3-yl)-amine]
CC1CC(C)CN(CCc2nc(Nc3ccc(C(F)(F)F)cc3)c3ccc(-c4ncccc4C(F)(F)F)cc3n2)C1 (centres unmarked) [Compound 430, [2-(3,5-Dimethyl-piperidin-1-ylethyl)-7-(3-trifluoromethyl-pyridin-2-yl)-quinazolin-4-yl]-(4-trifluoromethyl-phenyl)-amine]
C[C@@H]1CN(Cc2nc(Nc3ccc(C4CC4)cc3)c3ccc(-c4ncccc4C(F)(F)F)cc3n2)C[C@H](C)O1 [Compound 710, (4-Cyclopropyl-phenyl)-[2-(2,6-dimethyl-morpholin-4-ylmethyl)-7-(3-trifluoromethyl-pyridin-2-yl)-quinazolin-4-yl]-amine (cis)]
CC1CN(Cc2nc(Nc3ccc(C(C)C(F)(F)F)cc3)c3ccc(-c4ncccc4C(F)(F)F)cc3n2)CC(C)O1 (centres unmarked) [Compound 525, [2-(2,6-Dimethyl-morpholin-4-ylmethyl)-7-(3-trifluoromethyl-pyridin-2-yl)-quinazolin-4-yl]-[4-(2,2,2-trifluoro-1-methyl-ethyl)-phenyl]-amine]
CCN1CCCC1CNC(=O)c1nc(Nc2ccc(C(F)(F)F)cc2)c2ccc(-c3ncccc3C(F)(F)F)nc2n1 (centres unmarked) [Compound 431, 4-(4-Trifluoromethyl-phenylamino)-7-(3-trifluoromethyl-pyridin-2-yl)-pyrido[2,3-d]pyrimidine-2-carboxylic acid (1-ethyl-pyrrolidin-2-ylmethyl)-amide]
CCCN(C)CCc1nc(Nc2ccc(C(F)(F)F)cc2)c2ccc(-c3ncccc3C(F)(F)F)cc2n1 [Compound 412, [2-[(Propyl-methyl-amino)-ethyl]-7-(3-trifluoromethyl-pyridin-2-yl)-quinazolin-4-yl]-(4-trifluoromethyl-phenyl)-amine]
COCc1nc(Nc2ccc(S(C)(=O)=O)cc2)c2ccc(-c3ncccc3C(F)(F)F)cc2n1 [Compound 32, (4-Methanesulfonyl-phenyl)-[2-methoxymethyl-7-(3-trifluoromethyl-pyridin-2-yl)-quinazolin-4-yl]-amine]
CCCCN(CCCC)Cc1nc(Nc2ccc(C(F)(F)F)cc2)c2ncc(-c3ncccc3C(F)(F)F)cc2n1 [Compound 666, [2-Dibutylaminomethyl-7-(3-trifluonmethyl-pyridin-2-yl)-pyrido[3,2-d]pyrimidin-4-yl]-(4-trifluoromethyl-phenyl)-amine]
CCOCc1nc(Nc2ccc(C(F)(F)F)cc2)c2ccc(-c3ncccc3C)cc2n1 [Compound 90, [2-Ethoxymethyl-7-(3-methyl-pyridin-2-yl)-quinazolin-4-yl]-(4-trifluoromethyl-phenyl)-amine]
CC(C)COCc1nc(Nc2ccc(F)c(Cl)c2)c2ccc(-c3ncccc3C(F)(F)F)nc2n1 [Compound 275, (3-Chloro-4-fluoro-phenyl)-[2-isobutoxymethyl-7-(3-trifluoromethyl-pyridin-2-yl)-pyrido[2,3-d]pyrimidin-4-yl]-amine]
COCCN(CCOC)C(=O)c1nc(Nc2ccc(C(F)(F)F)cc2)c2ccc(-c3ncccc3C(F)(F)F)nc2n1 [Compound 469, 4-(4-Trifluoromethyl-phenylamino)-7-(3-trifluoromethyl-pyridin-2-yl)-pyrido[2,3-d]pyrimidine-2-carboxylic acid bis-(2-methoxy-ethyl)-amide]
CC(c1ccc(Nc2nc(CN3CCOCC3)nc3cc(-c4ncccc4C(F)(F)F)ccc23)cc1)C(F)(F)F (centres unmarked) [Compound 524, [2-Morpholin-4-ylmethyl-7-(3-trifluoromethyl-pyridin-2-yl)-quinazolin-4-yl]-[4-(2,2,2-trifluoro-1-methyl-ethyl)-phenyl]-amine]
C[C@@H]1C[C@H](C)CN(Cc2nc(Nc3ccc(C(F)(F)F)cc3)c3ncc(-c4ncccc4C(F)(F)F)cc3n2)C1 [Compound 668, [2-(3,5-Dimethyl-piperidin-1-ylmethyl)-7-(3-trifluoromethyl-pyridin-2-yl)-pyrido[3,2-d]pyrimidin-4-yl]-(4-trifluoromethyl-phenyl)-amine (cis)]
CC(C)COCc1nc(Nc2ccc(F)cc2)c2ccc(-c3ncccc3Cl)nc2n1 [Compound 259, [7-(3-Chloro-pyridin-2-yl)-2-isobutoxymethyl-pyrido[2,3-d]pyrimidin-4-yl]-(4-fluoro-phenyl)-amine]
CC(C)(CO)NCc1nc(Nc2ccc(C(F)(F)F)cc2)c2ccc(-c3ncccc3C(F)(F)F)cc2n1 [Compound 704, 2-Methyl-2-{[4-(4-trifluoromethyl-phenylamino)-7-(3-trifluoromethyl-pyridin-2-yl)-quinazolin-2-ylmethyl]-amino}-propan-1-ol]
CN(Cc1nc(Nc2ccc(C(F)(F)F)nc2)c2ccc(-c3ncccc3C(F)(F)F)cc2n1)C1CCCCC1 [Compound 381, [2-[(Cyclohexyl-methyl-amino)-methyl]-7-(3-trifluoromethyl-pyridin-2-yl)-quinazolin-4-yl]-(6-trifluoromethyl-pyridin-3-yl)-amine]
CC1CCCCN1Cc1nc(Nc2ccc(C(F)(F)F)nc2)c2ccc(-c3ncccc3C(F)(F)F)cc2n1 (centres unmarked) [Compound 379, [2-(2-Methyl-piperidin-1-ylmethyl)-7-(3-trifluoromethyl-pyridin-2-yl)-quinazolin-4-yl]-(6-trifluoromethyl-pyridin-3-yl)-amine]
CC1CCCN(CCc2nc(Nc3ccc(C(F)(F)F)cc3)c3ccc(-c4ncccc4C(F)(F)F)cc3n2)C1 (centres unmarked) [Compound 587, [2-(3-Methyl-piperidin-1-ylethyl)-7-(3-trifluoromethyl-pyridin-2-yl)-quinazolin-4-yl]-(4-trifluoromethyl-phenyl)-amine]
O=S(=O)(c1ccc(Nc2nc(CO)nc3cc(-c4ncccc4C(F)(F)F)cnc23)cc1)N1CCCCC1 [Compound 202, [4-[4-(Piperidine-1-sulfonyl)-phenylamino]-7-(3-trifluoromethyl-pyridin-2-yl)-pyrido[3,2-d]pyrimidin-2-yl]-methanol]
CC(C)COCc1nc(Nc2ccc(N3CCOCC3)cc2)c2ccc(-c3ncccc3Cl)nc2n1 [Compound 263, [7-(3-Chloro-pyridin-2-yl)-2-isobutoxymethyl-pyrido[2,3-d]pyrimidin-4-yl]-(4-morpholin-4-yl-phenyl)-amine]
CN1CCN(Cc2cc(Nc3ccc(C(F)(F)F)cc3)c3ccc(-c4ncccc4C(F)(F)F)nc3n2)CC1 [Compound 817, [2-(4-Methyl-piperazin-1-ylmethyl)-7-(3-trifluoromethyl-pyridin-2-yl)-[1,8]naphthyridin-4-yl]-(4-trifluoromethyl-phenyl)-amine]
CCN(Cc1nc(Nc2ccc(C(F)(F)F)nc2)c2ccc(-c3ncccc3C(F)(F)F)cc2n1)C1CCCCC1 [Compound 383, [2-[(Cyclohexyl-ethyl-amino)-methyl]-7-(3-trifluoromethyl-pyridin-2-yl)-quinazolin-4-yl]-(6-trifluoromethyl-pyridin-3-yl)-amine]
OCc1cc(Nc2ccc(C(F)(F)F)cc2)c2ccc(-c3ncccc3C(F)(F)F)nc2n1 [Compound 300, [4-(4-Trifluoromethyl-phenylamino)-7-(3-trifluoromethyl-pyridin-2-yl)-[1,8]naphthyridin-2-yl]-methanol]
CN(C)C(=O)c1nc(Nc2ccc(C(F)(F)F)cc2)c2ccc(-c3ncccc3C(F)(F)F)nc2n1 [Compound 467, 4-(4-Trifluoromethyl-phenylamino)-7-(3-trifluoromethyl-pyridin-2-yl)-pyrido[2,3-d]pyrimidine-2-carboxylic acid dimethylamide]
COCCN(CCOC)Cc1nc(Nc2ccc(C(C)C)cc2)c2ccc(-c3ncccc3C)cc2n1 [Compound 719, [2-{[Bis-(2-methoxy-ethyl)-amino]-methyl}-7-(3-methyl-pyridin-2-yl)-quinazolin-4-yl]-(4-isopropyl-phenyl)-amine]
Cc1cccnc1-c1ccc2c(Nc3ccc(C(C)(C)C#N)cc3)nc(COCC(C)C)nc2n1 [Compound 161, 2-{4-[2-Isobutoxymethyl-7-(3-methyl-pyridin-2-yl)-pyrido[2,3-d]pyrimidin-4-ylamino]-phenyl}-2-methyl-propionitrile]
